In patent US9149056B2, “Compositions and methods relating to carotenoids” (The Iams Company, priority 2011, dated 2015):

Assays:
[1] = test system: Caco-2 cells; type: in vitro ADME; conditions: human, Caco-2, 4 h
Description: An in vitro digestion coupled with intestinal culture model was developed to mimic the in vivo absorption of carotenoids. It is important to note that absorption as determined by in vitro digestion is highly correlated with data derived by sampling small intestinal luminal contents from human subjects fed carotenoid rich vegetables and bioavailability data from published human studies.
The interactions among beta-carotene (B), lutein (L), and astaxanthin (A) or astaxanthin ester (AE) were examined using the coupled simulated digestion/Caco-2 cell model. Cellular carotenoids after four hour incubation with micelles generated during simulated digestion of carotenoid-rich oil are presented in Table 2 below.
Simulated digestion: Non-fat yogurt (2.7 g) was homogenized in 10 mL 120 mM salt solution. The mixture was transferred to 50 mL glass test tube. Carotenoid rich oil was carefully added for each reaction (6 replicates per test oil), and total volume of oil was adjusted to 300 μL using soybean oil. The procedure for the simulated digestion followed the standard protocol (See Failla M L., Chitchumroonchokchai C. (2005) In vitro models as tools for screening the relative bioavailabilities of provitamin A carotenoids in foods. HarvestPlus Technical Monograph Series 3. 32 p. www.harvestplus.org/pdfs/tech03.pdf), except that reactions contained pancreatic enzymes and bile extract. […] After completing gastric and small intestinal digestion, an aliquot (9 ml.) of digesta was centrifuged at 12,000×g, 4° C. for 45 min. to isolate aqueous fraction containing micellar carotenoids from residual undigested materials. The aqueous fraction was passed through syringe filter (0.22 μm) to determine carotenoids that partitioned into either aqueous or micellar phase. Aliquots of digesta and aqueous fraction were stored at −20° C. for a maximum of one week before extraction. Beta-carotene and lutein was quantified according to Chitchumrronchokchai et al. (See Chitchumroonchokchai C., Schwartz S J., Failla M L. Assessment of lutein bioavailability from meals and supplement using simulated digestion and Caco-2 human intestinal cells. J Nutr. 2004; 134:2280-2286), and astaxanthin was measured as described in Lin W C et al. (Lin W C, Chien J T, Chen B H. Determination of carotenoids in spear shrimp shells (Parapenaeopsis hardwickii) by liquid chromatography. J Agric Food Chem. 2005 Jun. 29; 53(13):5144-9).
Cell uptake of carotenoids from micelles generated during digestion of oil enriched with individual carotenoids or mixtures of carotenoids: Caco-2 cells (HTB37; passages 25-28) obtained from ATCC ([…]) at passage 19 were maintained in 6-well plastic dishes. The cells were cultured in complete DMEM plus 15% heat inactivated FBS during replication phase. […]

[2] = test system: Caco-2 human intestinal cells; type: in vitro ADME; conditions: Caco-2, 18 h
Protocol: The interactions among beta-carotene (B), lutein (L), and astaxanthin (A) were examined using a Caco-2 cell model.
Caco-2 human intestinal cells were grown and maintained on transwell inserts (3.0 μm pores) according to protocol in Failla M L., Chitchumroonchokchai C. (2005) In vitro models as tools for screening the relative bioavailabilities of provitamin A carotenoids in foods. HarvestPlus Technical Monograph Series 3. 32 p. www.harvestplus.org/pdfs/tech03.pdf. Cultures were used at 21 days post-confluency (dpc).
The stock synthetic micelles (SM) containing either β-carotene (B), lutein (L), or astaxanthin (A) was prepared as described by Chitchumroonchokchai et al. (2004).
Treated cells were incubated in humidified environment of 95% air, 5% CO2 at 37° C. for 18 hours before spent medium in apical chamber (AP) and basolateral medium (BL) were collected. All samples were frozen at −80° C. under nitrogen until analysis. Carotenoid analysis in media and cells were quantified as described by Chitchumroonchokchai (See Chitchumroonchokchai C., Schwartz S J., Failla M L. Assessment of lutein bioavailability from meals and supplement using simulated digestion and Caco-2 human intestinal cells. J Nutr. 2004; 134:2280-2286). Protein content of cells was determined by the bicinchoninic acid assay (Pierce—www.piercenet.com/files/1296 as8.pdf). […]

Compound | % Carotenoid Cellular Uptake, B [1] [%] | % Increase in Carotenoid Cellular Uptake, B [1] [%] | % Increase in Carotenoid Cellular Uptake Compared to Single Carotenoid, B [2] [%] | % Carotenoid Cellular Uptake, L [1] [%] | % Increase in Carotenoid Cellular Uptake, L [1] [%] | % Increase in Carotenoid Cellular Uptake Compared to Single Carotenoid, L [2] [%]
CC1=C(/C=C/C(C)=C/C=C/C(C)=C/C=C/C=C(C)/C=C/C=C(C)/C=C/C2=C(C)CCCC2(C)C)C(C)(C)CCC1 [Beta-carotene, beta-carotene] | 5.70 | 0.00 | 0.00 | – | – | –
CC1=C[C@H](O)CC(C)(C)[C@H]1/C=C/C(C)=C/C=C/C(C)=C/C=C/C=C(C)/C=C/C=C(C)/C=C/C1=C(C)C[C@@H](O)CC1(C)C [Lutein, lutein] | – | – | – | 6.02 | 0.00 | 0.00
